The record followed here is ChEMBL document CHEMBL3045782, “SYNTHESIS OF THE RIGID ANALOGUES OF AN SSRI BENZENEPROPANAMINE” (Med Chem Res, 2004).

Data set [1] has as its system Mus musculus. The data set is described as follows: Anorexigenic activity in Mus musculus albino (mouse) assessed as anorexia at 75 umol/kg, ip relative to fluoxetine. It counts as functional.
Data set [2] concerns Mus musculus. Nature of the data set: Anorexigenic activity in Mus musculus albino (mouse) assessed as anorexia at 75 umol/kg, ip. It counts as functional.
Data set [3] concerns Mus musculus. The data set is described as follows: Antidepressant activity in Mus musculus albino (mouse) assessed as reversal of reserpine-induced ptosis, sedation and crouching at 75 umol/kg, ip. The data set is classed as functional.
The subject of data set [4] is Mus musculus. The data set is described as follows: Toxicity in Mus musculus albino (mouse) assessed as effect on gross behavior activity at 75 umol/kg, ip. The conditions noted are these: in vivo. It counts as organism-based.

Calls of active or inactive are those of the source. The calls are words filed in the database; no cut-off is given here.

Turning to `CN1CCC(Oc2ccc(C(F)(F)F)cc2)CC1`, the Activity in the data set on Mus musculus [1] was 28.92%; in the data set on Mus musculus [2] it was 23.6%; with Mus musculus [4] it was “Non-toxic”. The result in the data set on Mus musculus [3] was inactive.

In the case of `CNCCC(Oc1ccc(C(F)(F)F)cc1)c1ccccc1` (stereo unspecified) [FLUOXETINE], the Activity is 81.6% in the data set on Mus musculus [2] and 100% in the data set with Mus musculus [3].

On to `CCC(=O)c1ccc(OCC(O)CN2CCC(Oc3ccc(C(F)(F)F)cc3)CC2)cc1` (stereo unspecified), for which the Activity is 67.64% in the data set on Mus musculus [1], 55.2% with Mus musculus [2] and “Non-toxic” with Mus musculus [4]. Further, the result in the data set on Mus musculus [3] was inactive.

On to `N#Cc1ccc(OCC(O)CN2CCC(Oc3ccc(C(F)(F)F)cc3)CC2)cc1` (stereo unspecified), for which the Activity with Mus musculus [1] is listed as 70.58%; with Mus musculus [2], 57.6%; in the data set on Mus musculus [4], “Non-toxic”. Besides, the result in the data set on Mus musculus [3] was inactive.

With `COc1ccc(OCC(O)CN2CCC(Oc3ccc(C(F)(F)F)cc3)CC2)cc1` (stereo unspecified), the Activity is reported as 47.05% in the data set with Mus musculus [1], 38.4% in the data set with Mus musculus [2] and “Non-toxic” with Mus musculus [4]. Further, in the data set on Mus musculus [3], the outcome was inactive.

Turning to `COC(=O)c1ccc(OCC(O)CN2CCC(Oc3ccc(C(F)(F)F)cc3)CC2)cc1` (stereo unspecified), the Activity in the data set with Mus musculus [1] is given as 32.84%; in the data set with Mus musculus [2], 26.8%; with Mus musculus [4], “Non-toxic”. Besides, the result in the data set on Mus musculus [3] was inactive.

On to `OC(COc1ccc(C(F)(F)F)cc1)CN1CCC(Oc2ccc(C(F)(F)F)cc2)CC1` (stereo unspecified), for which the Activity was 77.94% with Mus musculus [1], 63.6% with Mus musculus [2] and “Non-toxic” with Mus musculus [4]. Also, the outcome in the data set with Mus musculus [3] was inactive.

Consider `OC(COc1ccc(Br)cc1)CN1CCC(Oc2ccc(C(F)(F)F)cc2)CC1` (stereo unspecified), for which the results for the Activity with Mus musculus [1], in the data set with Mus musculus [2] and in the data set on Mus musculus [4] were 95.09%, 77.6% and “Non-toxic”, respectively. Also, the result in the data set on Mus musculus [3] was inactive.

With `COc1cccc(OCC(O)CN2CCC(Oc3ccc(C(F)(F)F)cc3)CC2)c1` (stereo unspecified), the Activity in the data set with Mus musculus [1] is recorded as 63.23%; with Mus musculus [2] it was 51.6%; in the data set on Mus musculus [3] it was 50%; in the data set on Mus musculus [4], “Non-toxic”.

`OC(COc1cccc(C(F)(F)F)c1)CN1CCC(Oc2ccc(C(F)(F)F)cc2)CC1` (stereo unspecified): the Activity in the data set on Mus musculus [1] is listed as 38.23%; in the data set with Mus musculus [2], 31.2%; in the data set with Mus musculus [4], “Non-toxic”. For the same molecule, the result in the data set with Mus musculus [3] was inactive.

Turning to `OC(COc1ccc(Cl)cc1)CN1CCC(Oc2ccc(C(F)(F)F)cc2)CC1` (stereo unspecified), the Activity in the data set with Mus musculus [1] is 75.49%; with Mus musculus [2] it was 61.6%; in the data set with Mus musculus [3], 75%; in the data set on Mus musculus [4], “Non-toxic”.

With `CN1CCC(O)(c2ccccc2)CC1`, the Activity in the data set on Mus musculus [1] is recorded as 56.86%; in the data set with Mus musculus [2], 46.4%; with Mus musculus [4], “Non-toxic”. In the data set on Mus musculus [3], the outcome was inactive.

As for `CC(=O)Nc1ccc(OCC(O)CN2CCC(Oc3ccc(C(F)(F)F)cc3)CC2)cc1` (stereo unspecified), the values for the Activity in the data set on Mus musculus [1], in the data set on Mus musculus [2] and in the data set on Mus musculus [4] were 61.67%, 50.4% and “Non-toxic”, respectively. In addition, in the data set on Mus musculus [3], the result was inactive.

In the case of `FC(F)(F)c1ccc(OC2CCNCC2)cc1`, the Activity is 81.86% in the data set with Mus musculus [1], 66.8% in the data set on Mus musculus [2], 75% in the data set on Mus musculus [3] and “Non-toxic” with Mus musculus [4].

Turning to `CC(=O)c1ccc(OCC(O)CN2CCC(Oc3ccc(C(F)(F)F)cc3)CC2)cc1` (stereo unspecified), the results for the Activity in the data set on Mus musculus [1], in the data set on Mus musculus [2] and in the data set with Mus musculus [4] were 96.07%, 78.4% and “Non-toxic”, respectively. Moreover, the outcome with Mus musculus [3] was inactive.

Turning to `OC(COc1ccccc1)CN1CCC(Oc2ccc(C(F)(F)F)cc2)CC1` (stereo unspecified), the Activity in the data set on Mus musculus [1] is on record as 82.84%; with Mus musculus [2], 67.6%; in the data set on Mus musculus [4], “Non-toxic”. Also, the outcome with Mus musculus [3] was inactive.

As to `COC(=O)c1ccccc1OCC(O)CN1CCC(Oc2ccc(C(F)(F)F)cc2)CC1` (stereo unspecified), the Activity was 43.13% in the data set on Mus musculus [1], 35.2% with Mus musculus [2] and “Non-toxic” in the data set on Mus musculus [4]. Moreover, in the data set with Mus musculus [3], the outcome was inactive.
